Holding throughout (assay): NCI anticancer screen, dose series, 48 h
For test [1], the system named is OVCAR-4 ovarian.
Test [2] concerns 786-0 renal.
The test system of test [3] is HCT-116 colon.
Test [4] concerns OVCAR-5 ovarian.
The test system of test [5] is SK-MEL-28 melanoma.
For test [6], the system named is HCC-2998 colon.
For test [7], the system named is IGROV1 ovarian.
Test [8] concerns COLO 205 colon.
Test [9] has as its system A549 NSCLC.
Test [10] concerns NCI-H460 lung.

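Dose response: 5 concentrations. Exposure: 48 h. Format: 96-well plates. Endpoint: linear interpolation; highest concentration if not reached. GI50 = concentration required for 50% inhibition of growth. TGI: total growth inhibition.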

As to `COc1ccc(CCN=C2CCC(C(=O)NCCc3ccc(OC)c(OC)c3)N2)cc1OC` (stereo not given), the TGI in test [1], in test [2], in [3], in test [4], in [5] and in [6] was greater than 100 µM throughout. Moreover, the TGI in test [7], in test [8], in [9] and in test [10] was greater than 100 µM throughout.

Consider `Cc1c(C(=O)CSc2nc3ccccc3[nH]2)c(=O)n(-c2ccccc2)n1C`, for which the TGI in test [1], in test [2], in [3], in [4], in test [5] and in [6] was greater than 100 µM in each case. Besides, the TGI in test [7], in test [8], in test [9] and in test [10] was greater than 100 µM each time.

In the case of `COc1cccc(/C=C/C(=O)c2cc3c(N)c(C(=O)Nc4cccc5ccccc45)sc3nc2C)c1`, the GI50 in test [1] is 2.65 µM; in test [2], 0.851 µM; in test [3] it was 0.619 µM; in [4], 1.42 µM; in test [6], 1.14 µM; in [7] it was 1.05 µM. For the same compound, the GI50 was 1.71 µM in [8], 1.46 µM in test [9] and 1.22 µM in [10]. For the same compound, the TGI in test [1] was greater than 50 µM; in test [2] it was 1.85 µM; in test [3], 1.6 µM; in [4], 4.6 µM; in test [6] it was 2.79 µM; in test [7] it was 2.78 µM. For the same compound, the figures for the TGI in test [8], in test [9] and in [10] were 34.2 µM, greater than 50 µM and 3.45 µM, respectively.

As to `CC1CCC2N(C1)CC1C3(O)CC45OC6(O)C(O)CCC4(C)C6CCC5C3(O)CC(O)C1(O)C2(C)O` (stereo not given), the TGI in test [1], in test [2], in [3], in test [4], in test [5] and in [6] was greater than 100 µM in each case. Also, the TGI in [7], in test [8], in [9] and in [10] was greater than 100 µM throughout.

As to `CCOC(=O)C(NC(=O)c1[nH]cnc1/N=N/N(C)C)C(C)C` (stereo not given), the TGI in test [1], in test [2], in test [3], in test [4], in [5] and in test [6] was greater than 100 µM throughout. In addition, the TGI in [7], in [8], in test [9] and in test [10] was greater than 100 µM throughout.

With `O=C1c2ccccc2C(=O)c2nc3ccc(Cl)cc3cc21`, the TGI in test [1], in [2], in [3], in test [4], in [5] and in test [6] was greater than 100 µM in each case. Moreover, the TGI in test [7], in [8], in test [9] and in test [10] was greater than 100 µM in each case.

For `CC(=O)N(Cc1ccccc1)c1ccccc1I(=O)=O`, the GI50 in test [1] was 65.4 µM; in test [2] it was 57.8 µM; in test [4] it was greater than 100 µM; in [5], 34.5 µM; in test [6] it was 99.3 µM; in test [7] it was 15.5 µM. In addition, the GI50 was 28.9 µM in test [8], 55.6 µM in test [9] and 22.8 µM in [10]. Further, the TGI in [1], in test [2], in test [4], in test [5], in test [6] and in test [7] was greater than 100 µM in each case. The TGI in test [8] was 90.4 µM; in [9], greater than 100 µM; in test [10], 58.5 µM.

As to `COc1ccc2nc3ccccc3c(NCCCCN(C)CCCl)c2c1`, the TGI stood at 0.843 µM in [1]; 0.185 µM in test [2]; 0.303 µM in [3]; 1.08 µM in test [4]; 2.39 µM in test [5]; 0.467 µM in [6]. The TGI came out at 0.877 µM in test [7], 0.0789 µM in test [8], 1.87 µM in test [9] and 0.234 µM in test [10].

`CN1CCc2c1nc(-c1ccc([N+](=O)[O-])cc1)c1c2N(C)CC1`: the TGI in test [1], in test [2], in [3], in [4], in test [6] and in [7] was greater than 100 µM in each case. Besides, the TGI in test [8], in test [9] and in test [10] was greater than 100 µM each time.

In the case of `CCOC(=O)C1COc2cc(-c3cc(=O)c4ccccc4o3)ccc2O1` (stereo not given), the TGI in [1], in test [2], in test [3], in test [4], in [5] and in test [6] was greater than 100 µM throughout. Further, the TGI in test [7], in [8], in test [9] and in test [10] was greater than 100 µM in each case.

On to `CC1CC[C@]2(C(=O)O)CCC3(C)C(=CCC4[C@@]5(C)CC[C@H](OS(=O)(=O)c6ccccc6)C(C)(C)C5CC[C@]43C)[C@@H]2[C@H]1C` (stereo not given in full), for which the TGI in test [1], in test [2], in test [3], in test [4], in test [5] and in [6] was greater than 100 µM throughout. The TGI in test [7], in [8], in test [9] and in test [10] was greater than 100 µM in each case.

As for `CC1=NN(C(=O)c2ccccc2O)C(=O)/C1=C/c1cccc([N+](=O)[O-])c1`, the TGI in test [1] was greater than 100 µM; in [2], greater than 100 µM; in [3], greater than 67.7 µM; in test [4], greater than 100 µM; in test [5], greater than 100 µM; in test [6], greater than 100 µM. The TGI in test [8], in [9] and in test [10] was greater than 100 µM in each case.

As to `CC1COCC(C)N1C1=C(Cl)C(=O)c2ccccc2C1=O` (stereo not given), the GI50 was 1.61 µM in test [1]; 3.67 µM in test [2]; 1.65 µM in [3]; 17 µM in [4]; 14.2 µM in [5]; 17.2 µM in test [6]. Also, the GI50 in [8] was 13.3 µM; in test [9] it was 17 µM; in test [10], 15.8 µM. Besides, the TGI in test [1] is 3.03 µM; in test [2], 13.5 µM; in [3], 3.01 µM; in test [4], 32 µM; in test [5] it was 27.9 µM; in [6], 31.1 µM. The TGI in test [8] came out at 27 µM; in test [9], 32.2 µM; in test [10], 33.6 µM.

In the case of `CCOc1cc(-c2ccc[nH]2)[nH]c1/C=C1\N=C(C)C(C(=O)OC)=C1C`, the GI50 in test [1] is 0.0449 µM; in test [2], 0.0329 µM; in [3], 0.0188 µM; in [4], 0.0552 µM; in test [5], 0.143 µM; in test [6], 0.0442 µM. The GI50 in [8] was 0.031 µM; in test [9], 0.0531 µM; in test [10] it was 0.0256 µM. The TGI in test [1] came to 1.45 µM; in test [2], 0.259 µM; in test [3], 1.08 µM; in test [4], 1.68 µM; in [5] it was 0.9 µM; in test [6], 1.34 µM. Moreover, the results for the TGI in [8], in [9] and in test [10] were 0.304 µM, 0.58 µM and 1.32 µM, respectively.

In the case of `COc1cc([N+](=O)[O-])c2ncccc2c1[N+](=O)[O-]`, the GI50 in test [1] is 1.82 µM; in [2], 10.7 µM; in test [3], 3.47 µM; in test [4] it was 16.4 µM; in test [5], 13.2 µM; in test [6], 4.82 µM. Besides, the GI50 is 10.1 µM in test [8], 17.8 µM in test [9] and 6.07 µM in [10]. In addition, the TGI in [1] is 3.37 µM; in test [2] it was 23.3 µM; in test [3] it was 11.9 µM; in [4], 31.1 µM; in test [5], 27.1 µM; in test [6], 17.8 µM. Also, the TGI in test [8] came out at 22.9 µM; in test [9], 34.5 µM; in test [10], 24.6 µM.

As to `O=c1cc(-c2ccccn2)[nH]c2ccc(Cl)cc12`, the TGI in test [1], in test [2], in [3], in test [4], in test [5] and in test [6] was greater than 100 µM each time. Also, the TGI in [7], in [8] and in test [10] was greater than 100 µM each time. Besides, the GI50 in [3] is 26 µM.

For the compound `O=C1CN(/N=C/c2ccc(-c3ccc(F)cc3)o2)C(=O)N1`, the TGI was greater than 100 µM in [2]; greater than 100 µM in [3]; greater than 100 µM in test [4]; 83.6 µM in test [5]; greater than 100 µM in [6]; greater than 100 µM in [7]. In addition, the TGI in test [8], in test [9] and in test [10] was greater than 100 µM in each case.

Turning to `C#CCN(Cc1ccc2nc(N)[nH]c(=O)c2c1)c1ccc(C(=O)NC(CCC(=O)O)C(=O)O)cc1` (stereo not given), the TGI in test [2], in [3], in [4], in [5], in test [6] and in test [7] was greater than 100 µM each time. Also, the TGI in [8], in test [9] and in [10] was greater than 100 µM throughout.

On to `CNC(=O)CN(CC(N)=O)C(N)=O`, for which the TGI in test [1], in test [2], in [4], in test [5], in [6] and in test [7] was greater than 100 µM throughout. Also, the TGI in test [8], in test [9] and in [10] was greater than 100 µM each time.

Regarding `Cc1nc(-n2nc(-c3ccccc3)cc2-c2ccccc2)sc1C(/C=C/c1ccc([N+](=O)[O-])cc1)=N/NC(=O)c1ccncc1`, the TGI in test [2] is 37 µM; in test [3], 21.8 µM; in [4], greater than 100 µM; in test [5], 99.2 µM; in [6], 26.6 µM; in [7] it was greater than 100 µM. In addition, the TGI was 58.4 µM in [8], greater than 100 µM in test [9] and greater than 100 µM in test [10].

For the compound `O=C1C=CC2(C=C1)C[C@H](NC(=O)C(F)(F)F)C(=O)O2`, the TGI in test [1] was greater than 100 µM; in [2], greater than 100 µM; in [3] it was greater than 100 µM; in test [4] it was greater than 100 µM; in test [5] it was 38.3 µM; in test [6] it was greater than 100 µM. Further, the TGI in test [8], in test [9] and in [10] was greater than 100 µM throughout.

For the compound `CCSC(SCC)=C1C(=O)N(c2ccccc2)N=C1C`, the TGI in [2] came to 27 µM; in test [3] it was 28.3 µM; in test [4] it was 29.9 µM; in test [5] it was 26.5 µM; in test [6], 27.6 µM; in [7], 33.2 µM. For the same compound, the TGI is 7.08 µM in test [8], 35.1 µM in test [9] and 29.5 µM in [10].

Turning to `N[C@@H]1CCCC[C@@H]1N.O=P([O-])([O-])CN(CP(=O)([O-])[O-])CP(=O)([O-])[O-].[Pt+2]`, the GI50 in test [1], in test [2], in test [3], in test [5], in test [6] and in [7] was greater than 100 µM in each case. Besides, the GI50 in test [8], in test [9] and in [10] was greater than 100 µM throughout. Besides, the TGI in test [1], in test [2], in test [3], in test [5], in test [6] and in [7] was greater than 100 µM in each case. For the same compound, the TGI in test [8], in test [9] and in test [10] was greater than 100 µM each time.
